Assay results from US20250276993A1, “PSEUDO-DISACCHARIDE COMPOUNDS” (UNIVERSITEIT LEIDEN, priority 2022, published 2025).

What was measured:
[1] = system: HPSE in U87 glioma-cell lysates; assay: HSPG digest assay, U87 cell lysates; format: cell-based, human; conditions: inhibitor applied before or after cell lysis, comparable H35S solubilization profiles
Experimental: (§1) ECM coated 35 mm culture dishes containing ^35S labelled HS were prepared as previously described (Vlodavsky et al., Curr. Protoc. Cell. Biol., Chapter 10, Unit 10, 14). Briefly, bovine corneal endothelial cells were plated at an initial density of 2×10^5 cells/ml, with 4% dextran T-40 (Sigma) included in the growth medium. Na2^35SO4 (25 μCi/ml) was added to the incubation medium on days 2 and 5 after seeding. On day 12, subendothelial ECM is exposed by dissolving the cells with PBS containing 0.5% Triton X-100 and 20 mM NH4OH, followed by four washes with PBS. For HS-degradation assays, ECM coated dishes were incubated with 200 ng recombinant HPSE in 1 mL reaction mixture (10 mM buffer Phosphate-Citrate pH 6.0, 50 mM NaCl, 1 mM DTT, 1 mM CaCl2) containing HPSE inhibitors or DMSO control. Plates were incubated at 37° C. for 5 h, then assay medium collected and applied to a 0.9×30 cm Sepharose 6B size exclusion column. The Sepharose 6B column was eluted with PBS, and ^35S radioactivity of 0.2 mL fractions quantitated using a liquid scintillation analyzer (Packard BioScience). Digest assays with U87 cell lysates were carried out in a similar fashion, except plates were incubated for 18 h with cell extracts prepared from 1×10^6 U87 glioma cells lysed by 3× freeze/thaw cycles.

U87 glioblastoma cells = assay: Matrigel invasion assay; format: cell-based, human; conditions: 20 μM inhibitor, 4 h
Experimental: The Matrigel invasion assay was used to assess the effects of the compounds of the invention on cancer cell aggression. This is an in cellulo model of cell invasion through a HSPG rich basement membrane. The ability of cells to migrate through transwell inserts coated with Matrigel (an ECM secretion from Engelbreth-Holm-Swarm mouse sarcoma cells) correlates well with their in vivo invasive potential (Hall et al., Methods Mol Biol, 1070, 1-11 (2014)).
1×10^5 U87 cells in 200 μL DMEM media (without serum) were seeded onto the top chamber of a Matrigel-coated Boyden transwell filter, alongside 20 μM HPSE inhibitor (or PBS control). Cells in the upper chamber were separated by Matrigel from a lower chamber containing 600 μL DMEM, supplemented with 10% FBS. Plates were incubated at 37° C. for 4 h, before fixing cells in 4% (v/v) paraformaldehyde, and staining with 0.5% (w/v) crystal violet. Matrigel and non-migrating cells in the upper side of the Boyden filter were removed by swabbing, then invading cells on the bottom side of the transwell filter imaged for analysis. 10 randomly selected microscopic fields were recorded, and cell invasion calculated using ImageJ, by quantitating the percentage of the field stained by crystal violet. Graphs were plotted using RStudio.
The Matrigel invasion assay was used to assess the effects of the compounds of the invention on cancer cell aggression. […]

HPSE [2] = molecular target: T1, HPSE (Homo sapiens, UniProt Q9Y251); assay: X-ray crystallography, ligand soaking of HPSE crystals; conditions: crystal soaking
T1 sequence (Q9Y251 36-109 limits assumed): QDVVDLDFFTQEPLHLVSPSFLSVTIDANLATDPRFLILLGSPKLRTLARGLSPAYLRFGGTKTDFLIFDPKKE
T1 sequence (Q9Y251 158-543 limits assumed): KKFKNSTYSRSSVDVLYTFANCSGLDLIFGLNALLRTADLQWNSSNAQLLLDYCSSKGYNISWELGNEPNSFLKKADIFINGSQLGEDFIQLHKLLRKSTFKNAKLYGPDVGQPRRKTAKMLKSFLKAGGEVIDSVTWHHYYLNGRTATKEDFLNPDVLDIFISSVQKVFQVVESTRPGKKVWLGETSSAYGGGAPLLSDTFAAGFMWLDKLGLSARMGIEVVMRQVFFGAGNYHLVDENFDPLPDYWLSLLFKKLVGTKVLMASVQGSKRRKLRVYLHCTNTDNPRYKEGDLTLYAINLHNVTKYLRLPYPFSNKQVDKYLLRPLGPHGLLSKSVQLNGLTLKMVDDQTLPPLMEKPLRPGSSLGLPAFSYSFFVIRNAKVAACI
Description: Xray diffraction data were collected at 100 K at beamlines i03 (HPSE-2, HPSE-3, HPSE-4, EcGUSB-1, BpHep-3), i04 (AcGH79-2, BpHep-2) and i04-1 (Apo-AcGH79, AcGH79-1, AcGH79-3) of the Diamond Light Source UK. Reflections were autoprocessed using the XIA2 pipeline. Complexes were solved by directly refining against their unliganded structures where isomorphous, or else solved by molecular replacement with PHASER (search model PDB accessions: 5E98 (HPSE), 3VNY (AcGH79), 3K46 (EcGUSB), 5BWI (BpHep)). […] Ligand coordinates were built using jLigand. Diagrams were generated using PyMOL.
HPSE—Well diffracting crystals of HPSE were obtained by the sitting-drop vapor-diffusion method at 20° C. using a well solution containing 0.1 M MES pH 5.5, 0.1 M MgCl2, 17% (w/v) PEG 3350, and a protein to well solution ratio of 200 nl:500 nl. Crystals typically appeared after 1 week. Inhibitor ligand complexes were obtained by transferring HPSE crystals to drops of well solution supplemented with 25% (v/v) ethylene glycol and 1-5 mM inhibitor. Crystals were incubated with ligand for ˜2-4 h, then directly harvested and flash-cooled in LN2 for data collection.
To better understand the molecular basis of interaction between our inhibitors and their targets, we turned to X-ray crystallography, using ligand soaking to derivatize enzymes in crystallo.

HPSE [3] = molecular target: T1, HPSE; assay: HSPG digest assay, recombinant HPSE; format: biochemical
Experimental: as §1
The compounds of the invention were assessed against HPSE degradation of bona fide HSPGs in a physiologically relevant ECM-like environment. Cultured bovine corneal […] cells secrete a subendothelial basement membrane material rich in HSPGs, and their growth in the presence of ^35SO4^2− results in ^35S radiolabeled HSPGs (Vlodavsky et al., Curr Protoc Cell Biol, Chapter 10, Unit 10, 4, 2001). H^35S chains attached to these HSPGs are detectable after solubilization by HPSE, with enzyme inhibition leading to a corresponding reduction of signal.

inhibition of HPSE degradation of 35S-labelled HSPGs (HPSE [3]; 200 ng recombinant HPSE, pH 6.0, 5 h): robust, dose dependent inhibition
concentration giving comparable levels of inhibition (HPSE [3]; HSPG digest, recombinant HPSE): 1 µM
SMILES: CC(=O)NC1C(O)[C@H](O)C(CO)O[C@@H]1O[C@H]1C(O)C(O)[C@@H]2OC2C1C(=O)O (stereo partly drawn) [Compound 2, 4-O-(2-N-acetyl-2-deoxy-D-glucopyranosyl)-glucurono-cyclophellitol]
cell penetration / inhibition of intracellular HPSE pool [1]: can penetrate cells to inhibit the intracellular HPSE pool
Matrigel invasion (U87 glioblastoma cells): significantly reduced Matrigel invasion
binding mode in HPSE active site cleft (HPSE [2]): covalent linkages between their pseudo-anomeric carbons and the enzyme nucleophile Glu343
